Data taken from patent US12138256B2, “Treatment of cardiopulmonary disorders” (Bayer Aktiengesellschaft, priority 2021, dated 2024).
Values joined by “and” are separate entries in the source; they are usually repeats but may differ in a detail not shown here. Equal values may be shown once.

Tested on: anesthetized PAH minipigs
Test: PAH minipig model: intratracheal application of dry powder formulations and different hydrates (PennCentury insufflator)
Type: in vivo, Göttingen minipig
Conditions: micronized 375 μg/kg intratracheal @90 min
From the text: After characterization of the effects of comparative example 11 after nebulization of compound solutions, in a further step the effects of crystalline forms of comparative example 11, e.g. sesquihydrate, e.g. example 6e on PAP and BP after inhaled application of different dry powder lactose formulations (table C2.1.8) were studied in anesthetized PAH minipigs.
As reference pure Lactose vehicle was applied in the beginning of each experiment.

[1] = time not printed, 1st row after 310
[2] = time not printed, 2nd row after 310

With `O.O.O.O=C(O)c1ccc(CCN(CCc2ccccc2OCc2ccc(-c3ccc(C(F)(F)F)cc3)cc2Cl)[C@H]2CCCc3nc(C(=O)O)ccc32)cc1.O=C(O)c1ccc(CCN(CCc2ccccc2OCc2ccc(-c3ccc(C(F)(F)F)cc3)cc2Cl)[C@H]2CCCc3nc(C(=O)O)ccc32)cc1` [sesquihydrate ex. 6e] the BP (time 100) was 99 mmHg and 111 mmHg and 117 mmHg, the PAP (time 100) was 40.7 mmHg and 38.7 mmHg and 39.6 mmHg and the BP (time 110) was 101 mmHg and 112 mmHg and 116 mmHg. For the same compound, the PAP (time 110) was 36.5 mmHg and 37.6 mmHg and 35.4 mmHg, the BP (time 120) was 101 mmHg and 114 mmHg and 115 mmHg and the PAP (time 120) was 34.3 mmHg and 36.4 mmHg and 30.8 mmHg. For the same compound, the BP (time 130) was 101 mmHg and 114 mmHg and 115 mmHg, the PAP (time 130) was 32.3 mmHg and 35.7 mmHg and 28.6 mmHg and the BP (time 140) was 99 mmHg and 120 mmHg and 114 mmHg. For the same compound, the PAP (time 140) was 30.8 mmHg and 35.0 mmHg and 27.5 mmHg, the BP (time 150) was 99 mmHg and 121 mmHg and 114 mmHg and the PAP (time 150) was 30.3 mmHg and 29.0 mmHg and 26.6 mmHg. For the same compound, the BP (time 160) was 100 mmHg and 122 mmHg and 114 mmHg, the PAP (time 160) was 29.0 mmHg and 30.3 mmHg and 26.9 mmHg and the BP (time 170) was 101 mmHg and 121 mmHg and 115 mmHg. The PAP (time 170) was 28.0 mmHg and 28.3 mmHg and 25.1 mmHg, the BP (time 180) was 99 mmHg and 119 mmHg and 115 mmHg and the PAP (time 180) was 25.8 mmHg and 30.8 mmHg and 25.3 mmHg. The BP (time 190) was 99 mmHg and 123 mmHg and 114 mmHg, the PAP (time 190) was 25.1 mmHg and 30.8 mmHg and 23.9 mmHg and the BP (time 200) was 98 mmHg and 116 mmHg and 113 mmHg. The PAP (time 200) was 25.5 mmHg and 30.6 mmHg and 24.6 mmHg, the BP (time 210) was 99 mmHg and 117 mmHg and 116 mmHg and the PAP (time 210) was 25.0 mmHg and 30.8 mmHg and 24.2 mmHg. The BP (time 220) was 97 mmHg and 123 mmHg and 114 mmHg, the PAP (time 220) was 24.3 mmHg and 32.9 mmHg and 23.6 mmHg and the BP (time 230) was 97 mmHg and 119 mmHg and 114 mmHg. For the same compound, the PAP (time 230) was 24.0 mmHg and 31.5 mmHg and 23.6 mmHg, the BP (time 240) was 97 mmHg and 119 mmHg and 112 mmHg and the PAP (time 240) was 24.3 mmHg and 31.0 mmHg and 23.5 mmHg. The BP (time 250) was 97 mmHg and 118 mmHg and 111 mmHg, the PAP (time 250) was 24.2 mmHg and 31.3 mmHg and 22.9 mmHg and the BP (time 260) was 96 mmHg and 116 mmHg and 112 mmHg. The PAP (time 260) was 24.0 mmHg and 31.5 mmHg and 23.5 mmHg, the BP (time 270) was 99 mmHg and 115 mmHg and 109 mmHg and the PAP (time 270) was 24.5 mmHg and 29.8 mmHg and 22.6 mmHg. The BP (time 280) was 97 mmHg and 111 mmHg and 110 mmHg, the PAP (time 280) was 23.9 mmHg and 29.8 mmHg and 22.8 mmHg and the BP (time 290) was 97 mmHg and 110 mmHg and 107 mmHg. For the same compound, the PAP (time 290) was 23.5 mmHg and 30.3 mmHg and 22.0 mmHg, the BP (time 300) was 98 mmHg and 109 mmHg and 108 mmHg and the PAP (time 300) was 24.6 mmHg and 30.0 mmHg and 22.2 mmHg. For the same compound, the BP (time 310) was 97 mmHg and 109 mmHg and 105 mmHg, the PAP (time 310) was 23.9 mmHg and 29.6 mmHg and 21.9 mmHg and the BP [1] was 94 mmHg and 108 mmHg and 105 mmHg. For the same compound, the PAP [1] was 25.3 mmHg and 29.1 mmHg and 22.5 mmHg, the BP [2] was 97 mmHg and 108 mmHg and 105 mmHg and the PAP [2] was 25.1 mmHg and 28.5 mmHg and 21.6 mmHg.
